Test system: bovine cardiac myofibrils
Experiment: Myofibril assay: PK/LDH-coupled steady-state ATPase activity of skinned bovine cardiac myofibrils
Format: biochemical
Conditions: Ca2+ activating to 75% of maximal rate
Outline: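 Steady-state ATPase of detergent-skinned bovine left-ventricular myofibrils (1 mg/mL), PK/LDH-coupled NADH read at 340 nm, in PIPES/MgCl2 buffer pH 6.8 with 50 μM ATP, 0.6 mM EGTA and CaCl2 set for 50% or 75% activation. Inhibition of activity measured.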

Structure (SMILES)	CDMF75 IC15 [nM]
COC(=O)N1CC2(C1)C(=O)N(c1ccc(C#N)c(F)c1)CC(=O)N2Cc1ccc(C(F)(F)F)cc1 [Compound 196, methyl 8-(4-cyano-3-fluorophenyl)-6,9-dioxo-5-(4-(trifluoromethyl)benzyl)-2,5,8-triazaspiro[3.5]nonane-2-carboxylate]	400
CC(=O)N1CC2(C1)C(=O)N(c1ccc(C#N)c(F)c1)CC(=O)N2Cc1ccc(C(F)(F)F)cc1 [Compound 197, 4-(2-acetyl-6,9-dioxo-5-(4-(trifluoromethyl)benzyl)-2,5,8-triazaspiro[3.5]nonan-8-yl)-2-fluorobenzonitrile]	2700
N#Cc1ccc(N2CC(=O)N(Cc3ccc(C(F)(F)F)cc3)C3(CN(C(N)=O)C3)C2=O)cc1F [Compound 198, 8-(4-cyano-3-fluorophenyl)-6,9-dioxo-5-(4-(trifluoromethyl)benzyl)-2,5,8-triazaspiro[3.5]nonane-2-carboxamide]	500
N#Cc1ccc(N2CC(=O)N(Cc3ccc(C(F)(F)F)cc3)C3(CN(C(=O)NC4CC4)C3)C2=O)cc1F [Compound 199, 8-(4-cyano-3-fluorophenyl)-N-cyclopropyl-6,9-dioxo-5-(4-(trifluoromethyl)benzyl)-2,5,8-triazaspiro[3.5]nonane-2-carboxamide]	2300
Cn1cc(NC(=O)N2CC3(C2)C(=O)N(c2ccc(C#N)c(F)c2)CC(=O)N3Cc2ccc(C(F)(F)F)cc2)cn1 [Compound 200, 8-(4-cyano-3-fluorophenyl)-N-(1-methyl-1H-pyrazol-4-yl)-6,9-dioxo-5-(4-(trifluoromethyl)benzyl)-2,5,8-triazaspiro[3.5]nonane-2-carboxamide]	900
CN(C)C(=O)N1CC2(C1)C(=O)N(c1ccc(C#N)c(F)c1)CC(=O)N2Cc1ccc(C(F)(F)F)cc1 [Compound 201, 8-(4-cyano-3-fluorophenyl)-N,N-dimethyl-6,9-dioxo-5-(4-(trifluoromethyl)benzyl)-2,5,8-triazaspiro[3.5]nonane-2-carboxamide]	5100
N#Cc1ccc(N2CC(=O)N(Cc3ccc(C(F)(F)F)cc3)C3(CN(C(=O)C4CC4)C3)C2=O)c(F)c1 [Compound 203, 4-(2-(cyclopropanecarbonyl)-6,9-dioxo-5-(4-(trifluoromethyl)benzyl)-2,5,8-triazaspiro[3.5]nonan-8-yl)-3-fluorobenzonitrile]	600
N#Cc1ccc(N2CC(=O)N(Cc3ccc(C(F)(F)F)cc3)C3(CN(C(N)=O)C3)C2=O)c(F)c1 [Compound 204, 8-(4-cyano-2-fluorophenyl)-6,9-dioxo-5-(4-(trifluoromethyl)benzyl)-2,5,8-triazaspiro[3.5]nonane-2-carboxamide]	200
CC(=O)N1CCC2(C1)C(=O)N(c1ccc(C#N)cc1F)CC(=O)N2Cc1ccc(Cl)cc1 (stereo not shown) [Compound 205, 4-(2-acetyl-6-(4-chlorobenzyl)-7,10-dioxo-2,6,9-triazaspiro[4.5]decan-9-yl)-3-fluorobenzonitrile]	700
CC(=O)N1CC[C@]2(C1)C(=O)N(c1ccc(C#N)cc1F)CC(=O)N2Cc1ccc(C(F)(F)F)cc1 [Compound 209, (S)-4-(2-acetyl-7,10-dioxo-6-(4-(trifluoromethyl)-benzyl)-2,6,9-triazaspiro-[4.5]decan-9-yl)-3-fluorobenzonitrile]	500
COC(=O)N1CC[C@]2(C1)C(=O)N(c1ccc(C#N)cc1F)CC(=O)N2Cc1ccc(Cl)cc1 [Compound 211, methyl (S)-6-(4-chlorobenzyl)-9-(4-cyano-2-fluorophenyl)-7,10-dioxo-2,6,9-triazaspiro-[4.5]decane-2-carboxylate]	400
CCC(=O)N1CC[C@]2(C1)C(=O)N(c1ccc(C#N)cc1F)CC(=O)N2Cc1ccc(Cl)cc1 [Compound 214, (S)-4-(6-(4-chlorobenzyl)-7,10-dioxo-2-propionyl-2,6,9-triazaspiro[4.5]decan-9-yl)-3-fluorobenzonitrile]	500
N#Cc1ccc(N2CC(=O)N(Cc3ccc(C(F)(F)F)cc3)[C@]3(CCN(C(=O)C4COC4)C3)C2=O)c(F)c1 [Compound 215, (S)-3-fluoro-4-(2-(oxetane-3-carbonyl)-7,10-dioxo-6-(4-(trifluoromethyl)benzyl)-2,6,9-triazaspiro[4.5]decan-9-yl)benzonitrile]	1300
COC(=O)N1CC[C@]2(C1)C(=O)N(c1ccc(C#N)cc1F)CC(=O)N2Cc1ccc(C(F)(F)F)cc1 [Compound 216, methyl (S)-9-(4-cyano-2-fluorophenyl)-7,10-dioxo-6-(4-(trifluoromethyl)benzyl)-2,6,9-triazaspiro[4.5]decane-2-carboxylate]	300
N#Cc1ccc(N2CC(=O)N(Cc3ccc(C(F)(F)F)cc3)[C@]3(CCN(C(=O)C4CCC4)C3)C2=O)c(F)c1 [Compound 217, (S)-4-(2-(cyclobutane-carbonyl)-7,10-dioxo-6-(4-(trifluoromethyl)benzyl)-2,6,9-triazaspiro[4.5]decan-9-yl)-3-fluorobenzonitrile]	900
CCC(=O)N1CC[C@]2(C1)C(=O)N(c1ccc(C#N)cc1F)CC(=O)N2Cc1ccc(C(F)(F)F)cc1 [Compound 218, (S)-4-(7,10-dioxo-2-propionyl-6-(4-(trifluoromethyl)benzyl)-2,6,9-triazaspiro[4.5]decan-9-yl)-3-fluorobenzonitrile]	400

Structure (SMILES)	CDMF75 IC15 [nM]
N#Cc1ccc(N2CC(=O)N(Cc3ccc(C(F)(F)F)cc3)[C@]3(CCN(C(=O)C4CC4)C3)C2=O)c(F)c1 [Compound 219, (S)-4-(2-(cyclopropane-carbonyl)-7,10-dioxo-6-(4-(trifluoromethyl)benzyl)-2,6,9-triazaspiro[4.5]decan-9-yl)-3-fluorobenzonitrile]	400
N#Cc1ccc(N2CC(=O)N(Cc3ccc(Cl)cc3)[C@]3(CCN(C=O)C3)C2=O)c(F)c1 [Compound 220, (S)-4-(6-(4-chlorobenzyl)-2-formyl-7,10-dioxo-2,6,9-triazaspiro[4.5]decan-9-yl)-3-fluorobenzonitrile]	800
CC(C)C(=O)N1CC[C@]2(C1)C(=O)N(c1ccc(C#N)cc1F)CC(=O)N2Cc1ccc(Cl)cc1 [Compound 221, (S)-4-(6-(4-chlorobenzyl)-2-isobutyryl-7,10-dioxo-2,6,9-triazaspiro[4.5]decan-9-yl)-3-fluorobenzonitrile]	4100
CC(C)C(=O)N1CC[C@]2(C1)C(=O)N(c1ccc(C#N)cc1F)CC(=O)N2Cc1ccc(C(F)(F)F)cc1 [Compound 223, (S)-3-fluoro-4-(2-isobutyryl-7,10-dioxo-6-(4-(trifluoromethyl)benzyl)-2,6,9-triazaspiro[4.5]decan-9-yl)benzonitrile]	2300
CC(=O)N1CC[C@]2(C1)C(=O)N(c1ccc(OC(F)F)cc1)CC(=O)N2Cc1ccc(Cl)cc1 [Compound 224, (S)-2-acetyl-6-(4-chloro-benzyl)-9-(4-(difluoro-methoxy)phenyl)-2,6,9-triazaspiro[4.5]decane-7,10-dione]	12100
COc1ccc(N2CC(=O)N(Cc3ccc(Cl)cc3)[C@]3(CCN(C(C)=O)C3)C2=O)nc1 [Compound 225, (S)-2-acetyl-6-(4-chloro-benzyl)-9-(5-methoxy-pyridin-2-yl)-2,6,9-triazaspiro[4.5]decane-7,10-dione]	29600
N#Cc1ccc(N2CC(=O)N(Cc3ccc(Cl)cc3)[C@]3(C[C@@H](C(N)=O)C3)C2=O)c(F)c1 [Compound 266, (2s,4s)-5-(4-chlorobenzyl)-8-(4-cyano-2-fluorophenyl)-6,9-dioxo-5,8-diazaspiro-[3.5]nonane-2-carboxamide]	700
CC1(CO)C(=O)N(c2ccc(C#N)cc2F)CC(=O)N1Cc1ccc(C(F)(F)F)cc1 (stereo not shown) [Compound 269, 3-fluoro-4-(3-(hydroxy-methyl)-3-methyl-2,5-dioxo-4-(4-(trifluoro-methyl)benzyl)piperazin-1-yl)benzonitrile]	1200
CC1(CO)C(=O)N(c2ccc(Cl)cc2F)CC(=O)N1Cc1ccc(C(F)(F)F)cc1 (stereo not shown) [Compound 270, 1-(4-chloro-2-fluorophenyl)-3-(hydroxymethyl)-3-methyl-4-(4-(trifluoro-methyl)benzyl)piperazine-2,5-dione]	1900
O=C1CN(c2ccc(Cl)cc2F)C(=O)C2(CC2)N1Cc1ccc(C(F)(F)F)cc1 [Compound 271, 7-(4-chloro-2-fluorophenyl)-4-(4-(trifluoromethyl)-benzyl)-4,7-diazaspiro-[2.5]octane-5,8-dione]	600
O=C1CN(c2ccc(Cl)cc2F)C(=O)C2(CCC2)N1Cc1ccc(C(F)(F)F)cc1 [Compound 272, 8-(4-chloro-2-fluorophenyl)-5-(4-(trifluoromethyl)-benzyl)-5,8-diazaspiro-[3.5]nonane-6,9-dione]	500
CC1(C)C(=O)N(c2ccc(Cl)cc2F)CC(=O)N1Cc1ccc(C(F)(F)F)cc1 [Compound 273, 1-(4-chloro-2-fluorophenyl)-3,3-dimethyl-4-(4-(trifluoromethyl)benzyl)-piperazine-2,5-dione]	1800
O=C1CN(c2ccc(Cl)cc2F)C(=O)C2(COC2)N1Cc1ccc(C(F)(F)F)cc1 [Compound 274, 8-(4-chloro-2-fluorophenyl)-5-(4-(trifluoromethyl)-benzyl)-2-oxa-5,8-diazaspiro[3.5]nonane-6,9-dione]	1000
C[C@@H]1C(=O)N(c2ccc(Cl)cc2F)CC(=O)N1Cc1ccc(C(F)(F)F)cc1 [Compound 275, (R)-1-(4-chloro-2-fluoro-phenyl)-3-methyl-4-(4-(trifluoromethyl)benzyl)-piperazine-2,5-dione]	6000
C[C@H]1C(=O)N(c2ccc(Cl)cc2F)CC(=O)N1Cc1ccc(C(F)(F)F)cc1 [Compound 276, (S)-1-(4-chloro-2-fluoro-phenyl)-3-methyl-4-(4-(trifluoromethyl)benzyl)-piperazine-2,5-dione]	3000
